Measured values taken from paper PMC7985297 (Communications Biology, 2021).
Values joined by “and” are separate entries in the source; they are usually repeats but may differ in a detail not shown here. Equal entries are not always repeated.

Experiments:
[1] = biological target: T1, recombinant human Pin1 protein (Homo sapiens, UniProt Q13526); assay: Pin1 inhibition assay (fluorometric isomerase activity); assay type: biochemical; conditions: compounds 0–50 µM, 500 ng Pin1, Supplementary Fig. 2
T1 construct: purchased Abcam ab51230
Procedure: The effect of inhibitors on Pin1 isomerase activity was evaluated using a fluorometric Pin1 Assay Kit (AnaSpec, Fremont, California), according to the manufacturer’s protocol. […] Fluorescence intensity was measured with excitation wavelength at 490 nm and emission wavelength at 520 nm on an Infinite M1000 plate reader (Tecan, Männedorf, Switzerland) at 37 °C. Measurements were recorded every 5 min for up to 1 h.
Fluorescent polarization-based assay
the isomerase activity of Pin1. Each reaction contains 500 ng of
recombinant human Pin1 protein incubated with an inhibitor and a
fluorogenic substrate at 37°C. The uncatalyzed reaction represents
the intrinsic cis/trans isomerization of the substrate without Pin1
separate experiments with the correlation performed in duplicate
wells. RFU, relative fluorescent units.
(1 picture or pasted object on this page, not shown here)

[2] = test system: Pin1 and cell cycle proteins in LN95 cells; assay: Western blot of Pin1 and cell cycle proteins in LN95 cells; conditions: for CyclinA2 protein level (Fig. 6a) / CyclinB1 protein level (Fig. 6a) / CyclinD1 protein level (Fig. 6a) / Pin1 protein level (Fig. 6a) / p21 protein level (Fig. 6a) / p27 protein level (Fig. 6a): relative to 0 μM = 1, replicate experiments by date
Procedure: Data shown are the means ± s.e.m. from 3–4 independent experiments. Statistical significance was determined by ANOVA using the Dunnett’s multiple comparisons test. *P < 0.05, **P < 0.01, ***P < 0.001.
For western blot analyses, membranes were blocked with 5% non-fat milk in phosphate-buffered saline containing 0.1% Tween-20 (PBS-T) and then incubated overnight at 4 °C with primary antibody (1:200–5000) in PBS-T containing 5% non-fat milk or 2% BSA. After incubation with the primary antibody, the membrane was washed three times with TBS-T, incubated with a horseradish peroxidase-conjugated antibody secondary antibody (1:5000–10,000) for 1–2 h at room temperature, and washed three times with PBS-T and two more times with PBS before chemiluminescence was detected with ECL Prime Reagent (GE Healthcare Life Science, Mississauga, ON). Western blot images were captured using the ChemiDoc MP Imaging System (Bio-Rad Laboratories, Hercules, CA) and quantified using ImageJ software.

[3] = biological target: T2, full-length AR (Homo sapiens, UniProt P10275, T878A); assay: PSA(6.1 kb)-luciferase AR-driven reporter assay in LNCaP cells; assay type: cell-based; conditions: for PSA(6.1 kb)-luciferase activity normalized to fold-induction by R1881 (=100): without or with ATRA 5uM; for fractional response (Fig. 5h): monotherapy or with 5 µM ATRA
T2 construct: Transcriptional activity of full-length AR was assessed in LNCaP cells; endogenous in cells; host or cells: LNCaP
T2 sequence (P10275 1-920 T878A): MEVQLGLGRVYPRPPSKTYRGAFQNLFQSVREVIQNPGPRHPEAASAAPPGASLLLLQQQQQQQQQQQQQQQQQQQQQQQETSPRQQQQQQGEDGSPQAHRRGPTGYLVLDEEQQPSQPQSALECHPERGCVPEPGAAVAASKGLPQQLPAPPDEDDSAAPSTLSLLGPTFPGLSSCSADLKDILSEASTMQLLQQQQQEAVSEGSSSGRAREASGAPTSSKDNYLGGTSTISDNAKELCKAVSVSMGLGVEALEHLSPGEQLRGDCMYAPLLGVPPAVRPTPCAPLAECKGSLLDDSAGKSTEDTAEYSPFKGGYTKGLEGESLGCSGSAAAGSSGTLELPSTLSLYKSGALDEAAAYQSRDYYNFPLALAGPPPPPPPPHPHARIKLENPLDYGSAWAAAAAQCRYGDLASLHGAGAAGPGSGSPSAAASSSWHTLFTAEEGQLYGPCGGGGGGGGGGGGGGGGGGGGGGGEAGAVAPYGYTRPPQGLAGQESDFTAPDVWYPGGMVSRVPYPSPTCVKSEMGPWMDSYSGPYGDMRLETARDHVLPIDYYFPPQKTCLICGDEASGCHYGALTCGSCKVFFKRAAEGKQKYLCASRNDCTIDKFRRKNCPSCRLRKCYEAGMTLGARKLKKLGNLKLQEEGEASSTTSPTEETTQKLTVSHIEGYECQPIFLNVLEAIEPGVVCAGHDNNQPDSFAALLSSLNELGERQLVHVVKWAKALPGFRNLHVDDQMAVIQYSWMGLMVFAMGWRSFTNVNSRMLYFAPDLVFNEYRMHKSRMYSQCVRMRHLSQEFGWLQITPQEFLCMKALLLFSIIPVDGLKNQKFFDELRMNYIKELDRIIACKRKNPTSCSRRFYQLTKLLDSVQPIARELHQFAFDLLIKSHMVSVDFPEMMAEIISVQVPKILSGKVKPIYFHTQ

[4] = test system: LN95-D3 xenografts; assay: Growth of LN95-D3 CRPC xenografts in castrated male NSG mice; assay type: in vivo; conditions: castrated mice, ATRA 5 mg 21-day release pellet, EPI-7170 30 mg/kg daily oral, relative to vehicle/placebo-control
[5] = test system: Pin1, Cyclin D1, Skp2 and AR in LN95-D3 tumors; assay: Western blot of harvested LN95-D3 xenograft tumors (Pin1, Cyclin D1, Skp2, AR); assay type: in vivo, mice; conditions: LN95-D3 tumors at end of study
Procedure: Scale bars represent 5 mm (f) western blot analysis showing the expression of Pin1, Cyclin D1, Skp2, and AR from representative tumors. Quantification of the data is shown for g Pin1 and h Skp2, where the error bars represent the mean ± s.e.m.
All experiments involving animals conform to the relevant regulatory and ethical standards and were approved by the University of British Columbia Animal Care Committee (A18-0077). Metacam (1 mg/kg, 0.05 mL/10 g of body weight) was administered subcutaneously prior to any surgery. Animals were anesthetized with isoflurane and euthanized by CO2. Six–eight-week-old male (NOD-scid IL2Rgamma^null) mice were maintained in the Animal Care Facility at the British Columbia Cancer Research Centre. Mice were castrated 2 weeks before they were subcutaneously inoculated in the right flank with two million LN95-D3 cells in a 1:1 volume of matrigel (Corning Discovery Labware, Corning, NY). […] Tumors were excised 1 day after the last dose and prepared for western blot analysis and immunohistochemistry.

[6] = test system: Ki-67, PSA and AR in LN95-D3 xenografts; assay: Immunohistochemistry of LN95-D3 xenografts (Ki-67, PSA, AR); assay type: in vivo, mice
Source text: Fig. 8 Immunohistochemistry of LN95-D3 xenografts. a Representative images showing the histomorphology and expression of Ki-67, PSA, and AR from harvested tumors. Scale bars represent 100 µm. Statistical analysis for b the percentage of Ki-67-positive tumor cells and for the expression of c PSA and d AR. Error bars represent the mean ± s.d.
Sections were cut from formalin-fixed, paraffin-embedded tumor tissue at a thickness of 5 µm, deparaffinized in xylene, and then rehydrated in alcohols and distilled water. Endogenous peroxidase was blocked by incubating with a 3% hydrogen peroxide solution for 5 min. […] PSA was detected using a monoclonal mouse anti-human PSA antibody concentrate (ER-PR8; Dako). A negative control without the primary antibody was included for each sample on the same slide. Antigen was detected with 3,3-diaminobenzidine (DAB) and hematoxylin was used for counterstaining. Images were captured on an Axio Imager M2 microscope (Zeiss) at ×200 magnification. The percentage of Ki-67-positive cells was determined with ImageJ using the Cell Counter plugin. At least 1000 cells were scored from three images of representative tumors for each treatment group. The intensity of DAB staining for PSA was quantified by ImageJ using color deconvolution and measuring the mean gray value for the DAB image, where optical density = log(max intensity/mean intensity), and a max intensity of 255 for an 8-bit image.

[7] = test system: androgen-regulated genes (KLK3/PSA, TMPRSS2, NKX3.1, FKBP5); assay: Quantitative real-time PCR of androgen-regulated genes in LNCaP cells; assay type: cell-based, human; conditions: enzalutamide 5 μM, juglone 20 μM, R1881 1 nM, 48 hours
[8] = test system: LN95-D3 cells; assay: Cell cycle analysis by flow cytometry, LN95-D3 subline; assay type: cell-based, human; conditions: LN95-D3, absence of androgen, 48 h

T1 sequence (Q13526 whole entry): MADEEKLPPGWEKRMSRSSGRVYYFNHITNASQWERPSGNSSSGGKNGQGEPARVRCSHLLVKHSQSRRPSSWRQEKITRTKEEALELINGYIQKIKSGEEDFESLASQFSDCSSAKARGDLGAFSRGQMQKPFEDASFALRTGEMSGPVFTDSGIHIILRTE

CC1=C(/C=C/C(C)=C/C=C/C(C)=C\C(=O)O)C(C)(C)CCC1 [13cisRA, 13-cis-retinoic acid]
effect on isomerase activity of Pin1 [1]: did not inhibit the isomerase activity of Pin1
CyclinA2 protein level (Fig. 6a) ([2]; 1 μM): 1.4 and 0.72 and 1.11
CyclinB1 protein level (Fig. 6a) ([2]; 1 μM): 1.01 and 0.65 and 1.18
CyclinD1 protein level (Fig. 6a) ([2]; 1 μM): 0.66 and 0.89 and 1.34 and 0.47
Pin1 protein level (Fig. 6a) ([2]; 1 μM): 1.03 and 1.11 and 1.06 and 0.77
p21 protein level (Fig. 6a) ([2]; 1 μM): 1.11 and 0.58 and 0.74
p27 protein level (Fig. 6a) ([2]; 1 μM): 1.11 and 0.36 and 0.65
CyclinA2 protein level (Fig. 6a) ([2]; 5 μM): 1.68 and 0.83 and 0.8
CyclinB1 protein level (Fig. 6a) ([2]; 5 μM): 1.11 and 0.76 and 0.82
CyclinD1 protein level (Fig. 6a) ([2]; 5 μM): 0.7 and 1.29 and 1.73 and 0.85
Pin1 protein level (Fig. 6a) ([2]; 5 μM): 0.96 and 1.44 (2×) and 0.77
p21 protein level (Fig. 6a) ([2]; 5 μM): 0.92 and 0.24 and 0.67
p27 protein level (Fig. 6a) ([2]; 5 μM): 0.91 and 0.32 and 0.6
CyclinA2 protein level (Fig. 6a) ([2]; 10 μM): 1.29 and 0.49 and 1.45
CyclinB1 protein level (Fig. 6a) ([2]; 10 μM): 1.06 and 0.77 and 1.15
CyclinD1 protein level (Fig. 6a) ([2]; 10 μM): 0.54 and 1.01 and 0.27 and 0.84
Pin1 protein level (Fig. 6a) ([2]; 10 μM): 0.95 and 0.71 and 1.33 and 1.23
p21 protein level (Fig. 6a) ([2]; 10 μM): 0.89 and 0.39 and 1.12
p27 protein level (Fig. 6a) ([2]; 10 μM): 1.06 and 0.44 and 1.1
effect on cellular Pin1 protein levels ([2]; LN95, 0–10 µM): did not impact the cellular levels of Pin1

CC(C)(c1ccc(OC[C@H](O)CNS(C)(=O)=O)cc1)c1cc(Cl)c(OC[C@H](O)CCl)c(Cl)c1 [EPI-7170]
inhibition of reporter activity at highest concentration ([3]; 4 µM of EPI-7170): ~ 98%
mean combination index (CI) with ATRA, PSA(6.1 kb)-luciferase ([3]; ATRA 5 μM, Bliss independence model, highest concentrations excluded): 0.91
PSA(6.1 kb)-luciferase activity normalized to fold-induction by R1881 (=100) ([3]; EPI-7170 0.2 μM): 77.0788 and 79.4022 and 93.7923 and 73.47
PSA(6.1 kb)-luciferase activity normalized to fold-induction by R1881 (=100) ([3]; EPI-7170 0.5 μM): 56.3224 and 79.2412 and 61.2392 and 64.29
fractional response (Fig. 5h) ([3]; EPI-7170 2 μM): 0.8636 and 0.6689 and 0.7916 and 0.8858
fractional response (Fig. 5h) ([3]; EPI-7170 4 μM): 0.9949 and 0.9737 and 0.993 and 0.9732
IC50 ([3]; LNCaP, androgen-induced (R1881), 24 h, without ATRA, read-out: IC50 for PSA(6.1 kb) luciferase, monotherapy): 740 ± 1120 nM
tumor growth after 21 days of treatment [4]: significantly reduced
tumor levels of Skp2 [5]: reduced
effect on number of Ki-67-positive tumor cells ([6]; LN95-D3 xenografts): decreased the number of Ki-67-positive tumor cells in xenografts
levels of AR protein in xenografts (IHC) ([6]; LN95-D3 xenografts): similar
expression of AR, DAB staining (Fig. 8d) ([6]; LN95-D3 xenografts, ATRA 5 mg pellet, EPI-7170 30 mg/kg/d, listed as EPI placebo): 0.086 and 0.114 and 0.139 and 0.128 and 0.109 and 0.1 and 0.132 and 0.137
percentage of Ki-67-positive tumor cells (Fig. 8b) ([6]; LN95-D3 xenografts, ATRA 5 mg pellet, EPI-7170 30 mg/kg/d, one value per tumor, listed as EPI placebo): 19.68% and 14.7% and 15.02%
effect on PSA expression in xenografts (IHC) ([6]; compared to the control): decreased

CNC(=O)c1ccc(N2C(=S)N(c3ccc(C#N)c(C(F)(F)F)c3)C(=O)C2(C)C)cc1F [enzalutamide]
effect on androgen-induced FKBP5 transcript [7]: efficiently blocked
effect on cell cycle distribution [8]: had no effect on the cell cycle distribution
